The record followed here is publication doi:10.1101/2023.07.11.548539v1, “A side-by-side comparison of peptide-delivered antisense antibiotics employing different nucleotide mimics” (bioRxiv, 2023).

Oligonucleotides are written 5' to 3', each unit as a sugar letter and its base; * is a phosphorothioate linkage, no mark a phosphodiester; rarer units and linkages stand in square brackets, end groups in braces. Plain capitals give the bases only. d = 2'-deoxy (DNA)

Data set [1] has as its system AcpP::3xFLAG fusion protein. Description: Western blot of intracellular AcpP protein levels. It counts as cell-based, Salmonella SL1344 AcpP::3xFLAG. The arrangement: key to AcpP protein reduction: -: Effect strength is represented by additional (+) signs.; Effect strength is represented by additional (+) signs.; ++: Effect strength is represented by additional (+) signs.; +++: Effect strength is represented by additional (+) signs. To be noted: for AcpP protein reduction: summary grade, KFF-ASO treatment (Figure 9); for AcpP protein level (in words): 5 µM KFF-ASO conjugate, 30, 60, 120, 240 min for PNA and PMO, 120 min for all other ASOs. The procedure: Salmonella wild type (WT) and SL1344 AcpP::3xFLAG (chromosmal fusion of full length acpP to 3XFLAG-tag as described earlier([47]); internal strain number JVS-12398) were grown overnight in non-cation adjusted MHB. Bacterial cultures were diluted 1:100, grown to OD600 0.5 and subsequently diluted to approximately 10^6 cfu/ml in MHB. Then, 1.9 ml of each diluted bacterial solution was transferred into 5 ml low-binding tubes, pre-incubated at 37 °C for 10 min and treated with 100 µl of ASOs to adjust a final concentration of 5 µM. Water was added as negative control. The treatment with PNA and PMO was performed with aeration at 37 °C and 220 rpm shaking for 30, 60, 120 and 240 minutes while for all other ASOs, they were treated for 120 min only. Subsequently, the cells were collected by centrifugation at 4 °C and 16,000 ×g for 5 min, resuspended in 1× Protein Loading Buffer (62.6 mM Tris–HCl pH 6.8, 2 % SDS, 0.1 mg/ml bromophenol blue, 15.4 mg/ml DTT, 10 % glycerol) and denatured at 95 °C for 10 min.
For detection of AcpP::3xFLAG protein levels, samples were separated on an 12% SDS-PAA gel and transferred onto a Nitrocellulose membrane via semi dry western blotting. The membrane was probed with an α-FLAG antibody (Sigma; 1:1,000 in 1x TBS-T containing 3% BSA) at 4 °C overnight. After washing in 1x TBS-T, the membrane was incubated with a secondary HRP-conjugated anti-mouse antibody (Thermo Scientific; 1:5,000 in 1x TBS-T containing 1% BSA) at RT for 1 hour. Excessive antibody was removed by repeated wash steps in 1x TBS-T and the membrane was developed by Amersham™ ECL Select™ Western Blotting Detection Reagent Kit (Cytiva).
A general note: Immunoblotting shows a protein as a band on a membrane.

Data set [2] has as its system Cy5 5'-labelled RNA, nucleotides -20 to +20 of acpP (target mRNA). The data set is described as follows: Microscale thermophoresis (MST) binding affinity. The arrangement: species or system Salmonella enterica; key to Binding affinity (in vitro): -: Effect strength is represented by additional (+) signs.; Effect strength is represented by additional (+) signs.; ++: Effect strength is represented by additional (+) signs.; +++: Effect strength is represented by additional (+) signs. The conditions noted are these: unconjugated ASO; for Binding affinity (in vitro): summary grade. The procedure: For each binding experiment, Cy5 5’-labelled RNA (as described above) was diluted to 10 nM in Buffer A (50 mM Tris-HCl pH 7.6, 250 mM KCl, 5 mM MgCl2, 1 mM DTT, 5% glycerol supplemented with 0.05% Tween 20). A series of 16 tubes with different ASO dilutions (500 nM to 0.015 nM) were prepared in Buffer A. For measurements, each ASO dilution was mixed with one volume of labeled RNA, which led to a final concentration of 5.0 nM labeled RNA and 250 nM to 0.007 nM of ASOs. The reaction was mixed by pipetting and incubated for 30 min at RT in the dark. Capillary forces were used to load the samples into Monolith NT.115 Premium Capillaries; measurements were performed using a Monolith Pico instrument (NanoTemper Technologies Gmbh, Munich, Germany) at an ambient temperature of 25 °C. Instrument parameters were adjusted to 5% LED power, medium MST power, and MST on-time of 2.5 s. An initial fluorescence scan was performed across the capillaries to determine sample quality, which was followed by 16 thermophoresis measurements. […] Data of two independent measurements were analyzed for the ΔFnorm value determined by the MO Affinity Analysis software (NanoTemper Technologies Gmbh, Munich, Germany). The fitting for EC50 values was done using the Hill equation within the MO Affinity Analysis software. Data are presented as the mean EC50 values of two independent experiments.
(MST reads how a fluorescent partner responds to local heating, with and without ligand.)

The subject of a further data set is Salmonella. The data set is described as follows: Salmonella growth assay. The arrangement: key to Antibacterial activity: -: Effect strength is represented by additional (+) signs.; Effect strength is represented by additional (+) signs.; ++: Effect strength is represented by additional (+) signs.; +++: Effect strength is represented by additional (+) signs. The conditions noted are these: for Effect on Salmonella growth (in words): KFF-ASO conjugates or unconjugated peptide, 24 h growth kinetics, OD600, MHB, 37 °C, up to 10 µM; for Antibacterial activity: summary grade, ASO conjugated to the carrier peptide. Format: cell-based, Salmonella enterica serovar Typhimurium strain SL1344. The procedure:
An overnight bacterial cell culture was diluted 1:100 in fresh MHB and grown to OD600 0.5. The obtained culture was diluted to approximately 10^5 cfu/ml in non-cation-adjusted MHB. Subsequently, 190 µl bacterial solution was dispensed into a 96-well plate (Thermo Fisher Scientific) along with 10 µl of a 200 µM solution of the ASOs. Growth was monitored by measuring the OD at 600 nm every 20 min in a Synergy H1 plate reader (Biotek) with continuous double-orbital shaking (237 cpm) at 37 °C for 24 h.

Consider “DNA-PTO: 10mer phosphorothioate-modified DNA antisense oligomer, sequence CTCATACTCT, targeting acpP (antisense dC*dT*dC*dA*dT*dA*dC*dT*dC*dT)”, for which the AcpP protein reduction result in data set [1] is on record as “-”. Moreover, in data set [2], the “Binding affinity (in vitro)” value was “-”. Also, in data set [2] (MST, 5.0 nM labelled RNA, ASO 250 nM to 0.007 nM, 30 min RT, 25 °C, Hill fit, mean ± SD of two independent experiments), the “Binding affinity (EC50, nM)” value is on record as “Could not be determined”. Also, in the data set with Salmonella, the “Effect on Salmonella growth (in words)” value was “slight growth retardation was observed at 5 µM and 10 µM”; the Antibacterial activity entry was “-”.

On to “LNA: 10mer 2'-4'-locked RNA antisense oligomer, sequence CTCATACTCT, targeting acpP (all LNA, backbone and methylation of C not given here)”, for which the AcpP protein reduction entry in data set [1] is recorded as “-”. In addition, the “Binding affinity (in vitro)” value in data set [2] is reported as “+++”. Moreover, in the data set on Salmonella, the “Effect on Salmonella growth (in words)” value is “slight growth retardation was observed at 5 µM and 10 µM”; the Antibacterial activity result is recorded as “-”.

As for “PMO: 10mer phosphorodiamidate morpholino antisense oligomer, sequence CTCATACTCT, targeting acpP (all phosphorodiamidate morpholino (PMO))”, in data set [1], the “AcpP protein level (in words)” value is “gradual depletion of AcpP, albeit less pronounced than PNA” and the AcpP protein reduction entry is “+”. For the same substance, the “Binding affinity (in vitro)” value in data set [2] is recorded as “++”. The Antibacterial activity entry with Salmonella is on record as “+”.

Regarding “PNA: 10mer peptide nucleic acid antisense oligomer, sequence CTCATACTCT, targeting acpP (all peptide nucleic acid (PNA))”, in data set [1], the “AcpP protein level (in words)” value is reported as “depletion in AcpP levels can be observed from 60 min post treatment onwards” and the AcpP protein reduction entry is recorded as “++”. In addition, the “Binding affinity (in vitro)” value in data set [2] is “+++”. In the data set on Salmonella, the Antibacterial activity result is “++”.

“RNA-F: 10mer 2'-fluorinated RNA antisense oligomer, sequence CTCATACTCT, targeting acpP (all 2'-fluoro, backbone and T or U not given here)”: the AcpP protein reduction result in data set [1] is “-”. Besides, the “Binding affinity (in vitro)” value in data set [2] is “+”. Further, in the data set on Salmonella, the “Effect on Salmonella growth (in words)” value is “slight growth retardation was observed at 5 µM and 10 µM”; the Antibacterial activity entry was “-”.

As for “RNA-MOE: 10mer 2'-methoxyethylated RNA antisense oligomer, sequence CTCATACTCT, targeting acpP (all 2'-MOE, backbone and methylation of C not given here)”, the AcpP protein reduction entry in data set [1] is given as “-”. The “Binding affinity (in vitro)” value in data set [2] is recorded as “+++”. In the data set on Salmonella, the “Effect on Salmonella growth (in words)” value is “slight growth retardation was observed at 5 µM and 10 µM”; the Antibacterial activity entry is on record as “-”.

On to “RNA-OMe: 10mer 2'-methylated RNA antisense oligomer, sequence CTCATACTCT, targeting acpP (all 2'-O-methyl, backbone and T or U not given here)”, for which, in data set [1], the AcpP protein reduction entry was “-”. For the same substance, the “Binding affinity (in vitro)” value in data set [2] is given as “++”. In addition, in the data set with Salmonella, the “Effect on Salmonella growth (in words)” value is “no activity at all” and the Antibacterial activity result is recorded as “-”.
